Patent publication EP4810492A1, “NMT INHIBITOR, PREPARATION METHOD THEREFOR, AND USE THEREOF” (Nanjing Synnocare Pharmaceutical Technology Co., Ltd., priority 2023, dated 2025)
Where two headings read alike, the source gives them in different places.

Assays:
MV-4-11 cells = assay: Anti-proliferative activity against MV-4-11 cells (cell viability chemiluminescence); assay type: cell-based; conditions: MV4-11, 72 h, MV-4-11 human monocytic leukemia cells, three days of exposure
Procedure: This study utilized a cell proliferation assay to analyze the cytotoxicity of MV-4-11 human monocytic leukemia cells after three days of exposure to NMT1 inhibitors. The MV-4-11 cell line was purchased from Nanjing Cobuilder Biotechnology Co., Ltd., and cultured in IMDM medium (Viva cell) in an incubator (Thermo) at 37 °C with 5% CO2. In this experiment, NMT1 inhibitors were dissolved in DMSO to obtain 600 µM stock solutions. Dose-response solutions were prepared with a top endpoint compound concentration of 3 µM, followed by three-fold serial dilutions in DMSO, totaling eight data points. The final concentration of DMSO was 0.5%.
MV-4-11 cells were seeded into a white 96-well plate, 80 µL of cell suspension per well, containing 6000 MV-4-11 cells. The cell plate was placed in the CO2 incubator for overnight culture. Then, 20 µL of NMT1 inhibitor solutions at different concentrations were added to the wells. The 96-well plate was placed back into the incubator for three days. Another cell plate was prepared, and the signal was read on the day of drug addition to serve as the maximum value (Max value in the equation below) for data analysis. To this cell plate, 25 µL of cell viability chemiluminescence detection reagent was added per well, followed by incubation at room temperature for 10 minutes to stabilize the luminescence signal. A multi-label analyzer was used for reading.
The raw data were converted into inhibition rates using the equation (Sample - Min) / (Max - Min) * 100%. The IC50 values were then determined by fitting a four-parameter curve (using the "log(inhibitor) vs. response - Variable slope" model in GraphPad Prism). Min: wells treated with 0.5% DMSO; Max: Day 0 wells. Table 1 provides the inhibitory activity of the compounds of the invention on MV-4-11 cell proliferation. Table 1: Compound Inhibitory Activity against NMT1 Enzyme (IC50) and Anti-proliferative Activity against MV-4-11 Cell line (IC50)

NMT1 enzyme = molecular target: T1, NMT1 enzyme (Homo sapiens, UniProt P30419); assay: Inhibitory activity on NMT1 enzyme catalysis (fluorescence intensity assay); assay type: biochemical
T1 sequence (P30419 1-496): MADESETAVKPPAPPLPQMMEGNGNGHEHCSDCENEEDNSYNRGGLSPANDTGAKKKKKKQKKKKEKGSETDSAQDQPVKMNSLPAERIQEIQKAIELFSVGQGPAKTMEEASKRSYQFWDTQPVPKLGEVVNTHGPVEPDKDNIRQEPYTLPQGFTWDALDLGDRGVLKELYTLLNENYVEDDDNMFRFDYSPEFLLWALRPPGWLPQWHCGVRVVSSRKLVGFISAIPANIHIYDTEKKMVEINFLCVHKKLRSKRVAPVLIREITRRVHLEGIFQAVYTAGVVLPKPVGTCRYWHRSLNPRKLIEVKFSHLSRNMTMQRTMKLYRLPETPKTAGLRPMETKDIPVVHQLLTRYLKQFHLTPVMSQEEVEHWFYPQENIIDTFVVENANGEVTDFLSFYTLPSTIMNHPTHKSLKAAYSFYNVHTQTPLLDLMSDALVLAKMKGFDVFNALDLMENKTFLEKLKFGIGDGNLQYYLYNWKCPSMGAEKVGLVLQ
Procedure: This study evaluated the ability of the compounds of the invention to inhibit NMT1 catalytic activity in vitro. […] The final concentration of the NMT1 enzyme was 6 nM, the final concentration of CPM (Reactive thiol fluorescence probe, Invitrogen, D346) was 1 µM, the final concentration of HSPP60 SRC was 20 µM, and the final concentration of DMSO was 0.5%.
Compounds were dissolved in DMSO to obtain 10 mM stock solutions. Dose-response solutions were prepared with a top endpoint compound concentration of 3 mM, followed by three-fold serial dilutions in DMSO, totaling ten data points. […] Then, 2.5 µL of the NMT1 enzyme working solution was added to the 384-well assay plate, followed by incubation at 25 °C for 10 minutes. Subsequently, 5 µL of the CPM and myristoyl-CoA working solution was added, the plate was centrifuged at 1000 rpm for 1 minute, and then 2.5 µL of the HSPP60 SRC working solution was added to initiate the reaction. The reaction was incubated at 25 °C for 45 minutes.
The IC50 curve of the compounds was fitted using the software XLfit 5.5.0 according to the nonlinear regression equation.

[1] = Plasma concentrations in mice following oral administration; conditions: ICR, mouse, po, 10 mg/kg
Description: (§1) This study evaluated the plasma concentrations of the compounds of the present invention in mice. ICR mice were procured from JOINN Laboratories (Suzhou) Co., Ltd. At the initiation of dosing, the animals were 6-8 weeks old and weighed 18-25 g. Mice were housed in transparent plastic cages (400 mm*240 mm*200 mm). The animal facility maintained a 12-hour light/12-hour dark cycle (lights on 07:00-19:00) using fluorescent lighting. The dark period may be intermittently interrupted as required for study-related activities. Ambient temperature and relative humidity were controlled within 20-26 °C and 40-70%, respectively. Animals were fed certified rodent chow and provided with drinking water filtered and sterilized through an ultrapure water system. All animals had ad libitum access to water throughout the study. Animals were fasted for at least 12 hours prior to dosing, and food was restored 4 hours post-dosing.
(§2) Prior to dosing, body weights were recorded, and healthy animals with similar weights were selected and randomly assigned to groups (n = 3 per group) based on body weight. The compounds were formulated in a 0.5% aqueous carboxymethyl cellulose (CMC) solution and administered orally at a single dose of 10 mg/kg. Blood samples (≥0.2 mL) were collected via venipuncture at 1 h and 4 h post-dose into EDTA-K2 anticoagulant tubes. Tubes were gently inverted to mix, immediately placed in an ice-water bath, and rapidly centrifuged at 4,000 rpm for 10 min at 4 °C to separate plasma. Plasma was stored at -70 °C until analysis.
(§3) Calibration curve and QC plasma samples: Working solutions for the calibration curve and QC samples were prepared using 80% methanol in water (Thermo Fisher) as the diluent. To prepare plasma calibration standards and QC samples, 5 µL of each working solution was added to 45 µL of blank plasma and mixed. To the prepared calibration and QC samples, 300 µL of internal standard solution (tolbutamide at 8 µg/mL in acetonitrile, Thermo Fisher) was added. […] The supernatant was collected and analyzed by liquid chromatography-tandem mass spectrometry (LC-MS/MS; AB Sciex API 5000).
(§4) Plasma sample pretreatment: After thawing at room temperature, 50 µL of each plasma sample was mixed with 300 µL of the internal standard solution (tolbutamide at 8 µg/mL in acetonitrile, Thermo Fisher). […] The supernatant was collected and analyzed by LC-MS/MS (AB Sciex API 5000).
(§5) Raw chromatograms, concentrations, and accuracy data were generated using Analyst software version 1.6.3.

[2] = mouse, in vivo, po, 10 mg/kg
Description: as §1, §2, §3, §4, §5

[3] = 6 nM NMT1 enzyme, 1.25 µM myristoyl-CoA, 20 µM HSPP60 SRC peptide, 45 minutes at 25 °C, read-out: NMT1 (IC50)

| IC50 (MV-4-11 cells) | IC50 (NMT1 enzyme; [3]) | concentration at 1 h [1] | concentration at 4 h [1] | concentration at 8 h [1] | SMILES | 1 h Concentration [2] | 4 h Concentration [2] | 8 h Concentration [2] | IC50 (MV-4-11 cells; Homo sapiens) | IC50 (NMT1 enzyme) |
| --- | --- | --- | --- | --- | --- | --- | --- | --- | --- | --- |
| 40.1 nM | 4.76 nM | 9760 ± 410 ng/mL | 8530 ± 1170 ng/mL | 6730 ± 1450 ng/mL | Cc1c(NS(=O)(=O)c2ccc(-c3ccc4oc5c(c4c3)CNCC5)cc2Cl)c(CC(F)(F)F)nn1C [Compound B39] |  |  |  |  |  |
| 9.51 nM | 1.94 nM | 5040 ± 1820 ng/mL | 3800 ± 621 ng/mL | 3730 ± 1280 ng/mL | Cc1c(NS(=O)(=O)c2c(Cl)cc(-c3ccc4oc5c(c4c3)CNCC5)cc2Cl)c(CCF)nn1C [Compound B45] |  |  |  |  |  |
| 17.9 nM | 3.95 nM |  |  |  | Cc1c(NS(=O)(=O)c2ccc(-c3ccc4oc5c(c4c3)CNCC5)cc2Cl)c(CCF)nn1C [Compound B50] |  |  |  |  |  |
| 6.05 nM | 2.51 nM |  |  |  | Cc1c(NS(=O)(=O)c2ccc(-c3ccc4sc5c(c4c3)CNCC5)cc2)c(CCF)nn1C [Compound B51] |  |  |  |  |  |
| 17.3 nM | 3.88 nM | 3630 ± 990 ng/mL | 2180 ± 185 ng/mL | 504 ± 71 ng/mL | Cc1c(NS(=O)(=O)c2ccc(-c3ccc4sc5c(c4c3)CCNC5)cc2)c(CCF)nn1C [Compound B52] |  |  |  |  |  |
| 27.2 nM | 4.02 nM | 2480 ± 626 ng/mL | 1020 ± 361 ng/mL | 399 ± 264 ng/mL | Cc1c(NS(=O)(=O)c2ccc(-c3ccc4oc5c(c4c3)CNCC5)cc2)c(CCF)nn1C [Compound B53] |  |  |  |  |  |
| 27 nM | 5.21 nM |  |  |  | Cc1c(NS(=O)(=O)c2ccc(-c3ccc4oc5c(c4c3)CNCC5)cc2Cl)c(CC(F)F)nn1C [Compound B61] |  |  |  |  |  |
| 7.48 nM | 2.47 nM |  |  |  | Cc1c(NS(=O)(=O)c2ccc(-c3ccc4sc5c(c4c3)CNCC5)cc2)c(CC(F)F)nn1C [Compound B62] |  |  |  |  |  |
| 30.2 nM | 4.08 nM | 1660 ± 366 ng/mL | 795 ± 127 ng/mL | 260 ± 63 ng/mL | Cc1c(NS(=O)(=O)c2ccc(-c3ccc4oc5c(c4c3)CNCC5)cc2)c(CC(F)F)nn1C [Compound B64] |  |  |  |  |  |

The remaining lines, values behind:

| SMILES | IC50 (MV-4-11 cells) | IC50 (NMT1 enzyme; [3]) | concentration at 1 h [1] | concentration at 4 h [1] | concentration at 8 h [1] | 1 h Concentration [2] | 4 h Concentration [2] | 8 h Concentration [2] | IC50 (MV-4-11 cells; Homo sapiens) | IC50 (NMT1 enzyme) |
| --- | --- | --- | --- | --- | --- | --- | --- | --- | --- | --- |
| Cc1nn(C)c(C)c1NS(=O)(=O)c1c(Cl)cc(-c2ccc3sc4c(c3c2)CNCC4)cc1Cl [Compound 1, 2,6-dichloro-4-(1,2,3,4-tetrahydrobenzo[4,5]thieno[3,2-c]pyridin-8-yl)-N-(1,3,5-trimethyl-1H-pyrazol-4-yl)benzenesulfonamide] | 11.1 nM | 3.44 nM | 1820 ± 493 ng/mL | 1350 ± 15 ng/mL | 723 ± 363 ng/mL |  |  |  |  |  |
| Cc1c(NS(=O)(=O)c2c(Cl)cc(-c3ccc4sc5c(c4c3)CNCC5)cc2Cl)c(CC(F)(F)F)nn1C [Compound 17] | 62.5 nM | 5.62 nM | 5100 ± 2700 ng/mL | 4080 ± 1970 ng/mL | 3000 ± 1020 ng/mL |  |  |  |  |  |
| Cc1c(NS(=O)(=O)c2c(Cl)cc(-c3ccc4sc5c(c4c3)CNCC5)cc2Cl)c(CC2CC2)nn1C [Compound 21] |  |  |  |  |  | 1900 ± 199 ng/mL | 1114 ± 196 ng/mL | 679 ± 220 ng/mL | 26.9 nM | 3.58 nM |
| Cc1c(NS(=O)(=O)c2c(Cl)cc(-c3ccc4sc5c(c4c3)CCNC5)cc2Cl)c(CC(C)C)nn1C [Compound 54] | 38 nM | 4.73 nM | 3320 ± 1200 ng/mL | 2310 ± 211 ng/mL | 981 ± 343 ng/mL |  |  |  |  |  |
| Cc1c(NS(=O)(=O)c2c(Cl)cc(-c3ccc4oc5c(c4c3)CNCC5)cc2Cl)c(CC#N)nn1C [Compound B18] | 37 nM | 4.85 nM | 2490 ± 1200 ng/mL | 1670 ± 467 ng/mL | 1040 ± 157 ng/mL |  |  |  |  |  |
| Cc1c(NS(=O)(=O)c2c(Cl)cc(-c3ccc4oc5c(c4c3)CNCC5)cc2Cl)c(CC2CC2)nn1C [Compound B26] | 11.4 nM | 2.87 nM | 4630 ± 2020 ng/mL | 3380 ± 575 ng/mL | 2150 ± 206 ng/mL |  |  |  |  |  |
| Cc1c(NS(=O)(=O)c2c(Cl)cc(N3CCc4sc5c(c4C3)CNCC5)cc2Cl)c(CC(F)(F)F)nn1C [Compound B35] |  |  |  |  |  | 2267 ± 1084 ng/mL | 1270 ± 384 ng/mL | 684 ± 239 ng/mL | 7.48 nM | 1.97 nM |
| Cc1c(NS(=O)(=O)c2c(Cl)cc(-c3ccc4sc5c(c4c3)CNCC5)cc2Cl)c(CCF)nn1C [Compound B43] | 3.42 nM | 1.79 nM | 3220 ± 650 ng/mL | 1710 ± 224 ng/mL | 1570 ± 104 ng/mL |  |  |  |  |  |
| Cc1c(NS(=O)(=O)c2c(Cl)cc(-c3ccc4sc5c(c4c3)CCNC5)cc2Cl)c(CCF)nn1C [Compound B44] | 9.27 nM | 2.08 nM |  |  |  |  |  |  |  |  |
| Cc1c(NS(=O)(=O)c2c(Cl)cc(N3CCc4sc5c(c4C3)CNCC5)cc2Cl)c(CCF)nn1C [Compound B46] | 3.61 nM | 2.03 nM |  |  |  |  |  |  |  |  |
| Cc1c(NS(=O)(=O)c2ccc(-c3ccc4sc5c(c4c3)CNCC5)cc2Cl)c(CCF)nn1C [Compound B48] | 3.26 nM | 1.89 nM | 2960 ± 340 ng/mL | 1400 ± 240 ng/mL | 447 ± 71 ng/mL |  |  |  |  |  |
| Cc1c(NS(=O)(=O)c2ccc(-c3ccc4sc5c(c4c3)CCNC5)cc2Cl)c(CCF)nn1C [Compound B49] | 19.5 nM | 2.37 nM |  |  |  |  |  |  |  |  |
| Cc1c(NS(=O)(=O)c2c(Cl)cc(-c3ccc4sc5c(c4c3)CNCC5)cc2Cl)c(CC(F)F)nn1C [Compound B54] | 5.45 nM | 1.79 nM |  |  |  |  |  |  |  |  |
| Cc1c(NS(=O)(=O)c2c(Cl)cc(-c3ccc4sc5c(c4c3)CCNC5)cc2Cl)c(CC(F)F)nn1C [Compound B55] | 21.1 nM | 3.72 nM |  |  |  |  |  |  |  |  |
| Cc1c(NS(=O)(=O)c2c(Cl)cc(-c3ccc4oc5c(c4c3)CNCC5)cc2Cl)c(CC(F)F)nn1C [Compound B56] | 19.6 nM | 3.49 nM |  |  |  |  |  |  |  |  |
| Cc1c(NS(=O)(=O)c2c(Cl)cc(N3CCc4sc5c(c4C3)CNCC5)cc2Cl)c(CC(F)F)nn1C [Compound B57] | 11.8 nM | 2.95 nM |  |  |  |  |  |  |  |  |
| Cc1c(NS(=O)(=O)c2c(Cl)cc(N3CCc4oc5c(c4C3)CCNC5)cc2Cl)c(CC(F)F)nn1C [Compound B58] | 8.97 nM | 2.08 nM |  |  |  |  |  |  |  |  |
| Cc1c(NS(=O)(=O)c2ccc(-c3ccc4sc5c(c4c3)CNCC5)cc2Cl)c(CC(F)F)nn1C [Compound B59] | 5.3 nM | 1.93 nM | 1870 ± 389 ng/mL | 846 ± 698 ng/mL | 149 ± 114 ng/mL |  |  |  |  |  |
| Cc1c(NS(=O)(=O)c2ccc(-c3ccc4sc5c(c4c3)CCNC5)cc2)c(CC(F)F)nn1C [Compound B63] | 20.4 nM | 3.67 nM |  |  |  |  |  |  |  |  |
